Columns and labels:
[1] = biological target: T1, M1 muscarinic receptors (3H-PZ sites, frontal cortex) (Rattus norvegicus, UniProt P08482); assay: Displacement of 3H-PZ from rat frontal cortex homogenate; format: binding; settings: for Ki: (a') frontal cortex, read-out: Ki(3H-PZ)
T1 sequence (P08482 1-460): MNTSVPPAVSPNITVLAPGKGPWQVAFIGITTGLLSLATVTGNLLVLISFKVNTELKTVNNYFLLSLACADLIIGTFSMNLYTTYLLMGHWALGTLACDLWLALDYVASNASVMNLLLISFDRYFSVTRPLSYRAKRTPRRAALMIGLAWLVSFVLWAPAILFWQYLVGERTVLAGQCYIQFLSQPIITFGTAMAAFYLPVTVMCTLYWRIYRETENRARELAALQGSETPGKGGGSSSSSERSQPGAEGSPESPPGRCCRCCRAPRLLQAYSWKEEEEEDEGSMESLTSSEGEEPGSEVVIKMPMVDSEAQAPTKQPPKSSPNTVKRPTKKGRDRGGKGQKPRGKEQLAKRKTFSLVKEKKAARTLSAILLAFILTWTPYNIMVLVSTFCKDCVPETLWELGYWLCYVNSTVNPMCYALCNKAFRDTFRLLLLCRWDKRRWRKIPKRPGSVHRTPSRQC

[2] = tested on: isolated guinea-pig ileum; assay: Contraction of isolated guinea-pig ileum preparation; settings: listed as (+)-AF122B
From the text: From this Table, it appears that compounds (III) were not so effective in contracting the guinea pig ileum preparation.

mice = assay: Pharmacodynamic profile and general toxicity in mice; format: in vivo, CD-1 mice
Description: Male white mice of the CD-1 strain supplied by Charles River Ltd. (U.K.) were used throughout. An acclimatization period of at least three days was allowed between arrival and commencement of a particular experimental series. The animals were fed a complete commercial pelleted rodent diet without restriction during the acclimatization and study periods. Animals had free access to tap water. Body weights during testing were mostly within 20-28 g.
Test materials were prepared as aqueous solutions in physiological saline (0.9% NaCl), up to a maximum concentration of 10 mg./ml. All materials were freshly prepared on the morning prior to each dosing session. Dosages were expressed gravimetrically (mg./kg.), in terms of the materials as received.
Groups of mice (mostly n=5) received either i.v. or oral administration of the test materials at various dose levels. Dose volumes appropriate for respective dose levels selected, were determined for each animal according to body weights on the day of dosing. Any behavioral changes occurring during one to two hours after administration, as well as incidence of death up to 24 hours after dosing were recorded.

[3] = tested on: AF64A-induced cognitive impairment (passive avoidance); assay: Step-through passive avoidance in AF64A- and saline-injected rats; format: in vivo; settings: for Retention Latency: 72 hour retention test
From the text: Development of potential drugs for the treatment of Alzheimer's disease requires their evaluation in appropriate animal models for this disease. […] This hippocampal cholinergic deficiency is accompanied by statistically significant cognitive impairments (inter alia) in step-through passive avoidance (PA). The present PA experiment investigated the possibility of reversing such impairments by administration of (+)-III (AF122B).
[…] post-operation, the AF64A and saline-injected groups were randomly subdivided into two treatment sub-groups. Sub-group 1 was treated with 1 mg./kg. i.p. (+)-III (AF122B), while sub-group 2 was treated with […]. i.p. saline. The drug or saline were administered immediately after shock.

[4] = biological target: T2, M1 muscarinic receptors (3H-PZ sites, forebrain) (Rattus norvegicus, UniProt P08482); assay: Displacement of 3H-Pirenzepine (3H-PZ, selective M1 antagonist) from rat forebrain homogenate; format: binding; settings: for M1 selectivity (in words): from Tables 2A, 2B, 2C
T2 sequence (P08482 1-460): T1 sequence (P08482 1-460)

[5] = biological target: muscarinic receptors (3H-QNB sites, frontal cortex); format: binding, rat; settings: (b') frontal cortex
[6] = biological target: muscarinic receptors (3H-CD sites, frontal cortex); assay: Displacement of 3H-CD from rat frontal cortex homogenate; format: binding; settings: (c') frontal cortex
[7] = biological target: T3, muscarinic receptors (3H-QNB sites, cerebellum, mainly M2) (Rattus norvegicus, UniProt P10980); assay: biochemical; format: binding; settings: Ki(3H-QNB), (b") cerebellum
T3 sequence (P10980 1-466): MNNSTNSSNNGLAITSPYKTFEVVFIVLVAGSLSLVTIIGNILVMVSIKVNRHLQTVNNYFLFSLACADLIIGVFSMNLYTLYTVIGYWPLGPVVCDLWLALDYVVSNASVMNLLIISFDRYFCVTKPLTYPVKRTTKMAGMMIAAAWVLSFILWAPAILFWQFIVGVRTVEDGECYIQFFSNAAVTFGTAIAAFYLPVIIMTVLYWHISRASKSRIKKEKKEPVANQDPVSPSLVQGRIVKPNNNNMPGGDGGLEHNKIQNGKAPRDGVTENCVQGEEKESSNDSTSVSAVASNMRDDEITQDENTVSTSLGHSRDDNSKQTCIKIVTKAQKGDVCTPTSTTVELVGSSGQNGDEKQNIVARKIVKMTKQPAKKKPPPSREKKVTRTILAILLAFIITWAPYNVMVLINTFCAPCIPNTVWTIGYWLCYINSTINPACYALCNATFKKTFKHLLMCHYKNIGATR

[8] = tested on: muscarinic receptors (3H-QNB sites, cerebellum, mainly M2); assay: biochemical; format: binding, rat
[9] = biological target: muscarinic receptors (3H-QNB sites, M1 and M2, forebrain); format: binding, rat; settings: (b) forebrain
[10] = 10 mg/kg i.v., listed as (+)-III AF122B
[11] = 25 mg/kg i.v., listed as (+)-III AF122B
[12] = 50 mg/kg i.v., listed as (+)-III AF122B
[13] = 200 mg/kg p.o., listed as (+)-III AF122B
[14] = AF64A-injected rats, 1 mg./kg. i.p.
[15] = saline-injected rats, 1 mg./kg. i.p.

## CC1OCC2(CN3CCC2CC3)S1 (single isomer, unassigned) [compound 10, 2-methylspiro(1,3-oxathiolan-4,3')quinuclidine]
[1]
  Ki: 7.4 µM
[2]
  Contraction of guinea pig ileum (in words): active enantiomer
mice; 10 mg/kg i.v.
  Convulsive seizures, No. affected/total treated: 2/8
  Mortality, time after drug administration: 5 s
  Respiratory distress, No. affected/total treated: 1/8
  Tremors, No. affected/total treated: 2/8
mice; [10]
  Analgesia (nonresponsiveness to tail pinch), No. affected/total treated: 5/8
  Mortality, No. dead/total treated: 1/8
mice; [11]
  Convulsive seizures, No. affected/total treated: 5/5
  Mortality, No. dead/total treated: 4/5
  Mortality, time after drug administration: 30 s
  Respiratory distress, No. affected/total treated: 1/5
  Tremors, No. affected/total treated: 4/5
mice; [12]
  Mortality, No. dead/total treated: 2/2
  Mortality, time after drug administration: 5 s
mice; 100 mg/kg i.v., immed = immediately
  Mortality, time after drug administration: immed
mice; 100 mg/kg i.v., listed as (+)-III AF122B
  Mortality, No. dead/total treated: 2/2
mice; 100 mg/kg p.o.
  Analgesia (nonresponsiveness to tail pinch), No. affected/total treated: 5/5
  Respiratory distress, No. affected/total treated: 1/5
  Vocalization, No. affected/total treated: 1/4
mice; 100 mg/kg p.o., listed as (+)-III AF122B
  Mortality, No. dead/total treated: 0/5
mice; 200 mg/kg p.o.
  Tremors, No. affected/total treated: 3/5
mice; [13]
  Altered motor activity: a+h
  Analgesia (nonresponsiveness to tail pinch), No. affected/total treated: 5/5
  Convulsive seizures, No. affected/total treated: 5/5
  Mortality, No. dead/total treated: 0/5
  Respiratory distress, No. affected/total treated: 4/5
  Vocalization, No. affected/total treated: 2/5
[3]; [14]
  Passive avoidance retention (in words): improved the passive avoidance retention of AF64A-injected rats
  Retention Latency: 549.5 ± 29.1 s
[3]; AF64A-injected rats, 1 mg./kg. i.p., p<0.01
  Effect on retention latency (in words): prolonged the retention latency of AF64A-injected rats
[3]; between any of the groups
  Initial latency (training) (in words): No significant differences were found during training
[3]; [15]
  Effect on retention latency (in words): no significant effect on the retention latency of saline-injected rats
  Retention Latency: 552 ± 33.7 s

## C[C@H]1O[C@@]2(CN3CCC2CC3)CS1(=O)=O (relative stereo) [compound 14, cis-2-methylspiro(1,3-oxathiolan-5,3')quinuclidine-3,3-dioxide]
[4]; compared with (±)-cis-(II)
  potency (in words): losing some of its potency
[4]
  M1 selectivity (in words): high M1 selectivity
[4]; listed as (±)-cis-(II)-sulfone
  M1 selectivity (in words): still preserved an outstanding profile as judged by its M1 selectivity (ratio a':c')
[1]
  a':b', Ki(3H-PZ):Ki(3H-QNB): 0.18
  Ki: 5.5 ± 0.43 µM
[1]; (g) frontal cortex ratio
  a':c', Ki(3H-PZ):Ki(3H-CD): 1.8
[5]
  Ki: 34.1 ± 3 µM
[6]
  Ki: 3.06 ± 2 µM
[7]
  Ki: 44.1 ± 6.5 µM
[8]; (i) Ki(3H-PZ) frontal cortex : Ki(3H-QNB) cerebellum
  a':b": 2.6
[8]; (k) Ki(3H-QNB) frontal cortex : Ki(3H-QNB) cerebellum
  b':b": 0.77
mice; 50 mg/kg i.v.
  Analgesia (nonresponsiveness to tail pinch), No. affected/total treated: 3/5
  Mortality, No. dead/total treated: 0/5
mice; 100 mg/kg i.v.
  Analgesia (nonresponsiveness to tail pinch), No. affected/total treated: 5/5
  Mortality, No. dead/total treated: 0/5
mice; 100 mg/kg p.o.
  Mortality, No. dead/total treated: 0/5
mice; 200 mg/kg p.o.
  Analgesia (nonresponsiveness to tail pinch), No. affected/total treated: 5/5
  Mortality, No. dead/total treated: 0/5

## CC1OCC2(CN3CCC2CC3)S1 (centres unmarked) [compound 7, 2-methylspiro(1,3-oxathiolan-4,3')quinuclidine]
[4]
  a:b, Ki(3H-PZ):Ki(3H-QNB): 0.17
[4]; (a) forebrain
  Ki: 1.22 ± 0.4 µM
[4]; listed as Compound (III)
  M1 selectivity (in words): M1 selectivity is preserved even in the mixture of the geometrical isomers
[9]
  Ki: 7 ± 0.5 µM

From patent US4876260A, “Oxathiolanes” (State of Israel, Israel Institute of Biological Research, priority 1988, dated 1989)
